Where a name gives a salt, the structure may show the parent alone.
Assays:
[1] = for hydrolysis / reaction rate (comparison in words): deionized water, molar ratio of CaCO3
Method: In the following examples, various ester hydrolysis reactions were run in the presence of calcium carbonate (CaCO3) to simulate the consumption of filter cake material. The acid evolved in each reaction was measured per unit of time. The acid generated upon hydrolysis was rapidly consumed in a secondary reaction that produced carbon dioxide (CO2). The half-life was secured when half of the CaCO3 was consumed. That is, using PV=nRT, the amount of CaCO3 that would yield approximately 1 liter of CO2 was calculated to be about 4.47 grams. We doubled the amount of CaCO3 (8.94 grams) for the reactions and then calculated the half-life based on the yield of 1 liter of CO2. Unless otherwise specified, all half-life quotations are actually the time required for 4.47 grams of CaCO3 to be consumed.
The following general procedure was used in each of the examples. The closed system reactor shown in FIG. 1 was used to measure the amount of CO2 gas that evolved in each reaction. Water or brine was added to a boiling flask 10, which was heated to 100° C. […] Once the liquid was boiling, a weighed amount of ester was added to flask 10. The amount of ester employed was always in ratio to the water or to the make-up water used to formulate the brine except where commercially available brines were used. Following addition of the ester to the boiling liquid, a reflux condenser 12 was affixed to flask 10. The top of condenser 12 was fixed with an adapter 14 to an inlet tube 18 in a 2-hole rubber stopper 16. The inlet tube 18 was passed through stopper 16, providing a seal. An outlet tube 22 was run from the bottom of a flask 20 to a 1,000 mL graduated cylinder 24. The flask 20 was charged with XP-07 base oil, commercially available from Halliburton Energy Services, Inc. The outlet tube 22 served the purpose of discharging the oil into graduated cylinder 24. The hydrolysis reaction produced acid in flask 10 that reacted with the CaCO3 to produce CO2 gas. The gas displaced the oil in flask 20 into graduated cylinder 24. The rate of CO2 evolution thus could be monitored visually by reading of the amount of oil in graduated cylinder 24 per unit of time.
Solutions containing various esters of lactic acid and of glycerol (i.e., monoacetin, ethyl lactate, triacetin, tripropionin), butyl formate (a control), and BDF-325 diethyleneglycol diformate (a control) in neutral water were prepared and combined with a molar ratio of CaCO3. Hydrolysis reactions were then carried out using the resulting solutions at 100° C. The hydrolysis reactions were monitored, and the half-lives of the esters were compared. The volume of oil displaced by the CO2 gas is plotted as a function of time in FIG. 2. […] The butyl formate to CaCO3 molar ratio was doubled for comparison purposes.
Solutions containing 10 volume % monoacetin, diacetin, and triacetin in deionized water were prepared and combined with a molar ratio of CaCO3. Hydrolysis reactions were then carried out using the resulting solutions at 100° C. The hydrolysis reactions were monitored, and the half-lives of the esters were compared. The volume of oil displaced by the CO2 gas is plotted as a function of time in FIG. 3.

[2] = Solubility of ester in water; assay type: physicochemical

Row | effect of doubling the ester to CaCO3 molar ratio on reaction rate [1] | hydrolysis / reaction rate (comparison in words) ([1]; 100° C.) | SMILES | other results
1 | doubled its reaction rate | faster than that of the butyl formate | CCCCOC(=O)C(C)O (stereo not drawn) [Butyl lactate] | –
2 | – | very similar | CC(=O)OCC(O)COC(C)=O [Diacetin] | –
3 | – | – | CCOC(=O)C(C)O (stereo not drawn) [Ethyl Lactate] | hydrolysis performance in different aqueous solutions ([1]; 10 volume % in deionized water and various brines, 100° C.): performed consistently
4 | – | – | CC(=O)OCC(O)CO (stereo not drawn) [Monoacetin] | half-life relative to target ([1]; buffer): within the targeted range
5 | – | very similar | CC(=O)OCC(COC(C)=O)OC(C)=O [Triacetin] | –
6 | surprisingly similar | slow reaction rate | CCCCOC=O [butyl formate, reference compound] | solubility in water [2]: relative insolubility

— patent US7431088B2, “Methods of controlled acidization in a wellbore” (Halliburton Energy Services, Inc., priority 2006, dated 2008)
